According to US20070293484A1, “Thiophene Heteroaryl Amines” (SUGEN, INC., priority 2004, published 2007):

How the values were obtained:
GST-Flk1 = molecular target: T1, GST-Flk1 (Mus musculus, UniProt P35918); test: GST-FLK-1 bioassay (ELISA, tyrosine kinase activity on poly(glu,tyr)); assay type: biochemical
T1 construct: GST-Flk1cd purified from sf9 recombinant baculovirus transformation (SUGEN, Inc.); host or cells: Sf9 insect cells (recombinant baculovirus)
Protocol: The assays described herein are performed in an ELISA (Enzyme-Linked Immunosorbent Sandwich Assay) format (Voller, et al., 1980, “Enzyme-Linked Immunosorbent Assay,” Manual of Clinical Immunology, 2d ed., Rose and Friedman, Am. Soc. Of Microbiology, Washington, D.C., pp. 359-371). The general procedure is as follows: a compound is introduced to cells expressing the test kinase, either naturally or recombinantly, for a selected period of time after which, if the test kinase is a receptor, a ligand known to activate the receptor is added. The cells are lysed and the lysate is transferred to the wells of an ELISA plate previously coated with a specific antibody recognizing the substrate of the enzymatic phosphorylation reaction. Non-substrate components of the cell lysate are washed away and the amount of phosphorylation on the substrate is detected with an antibody specifically recognizing phosphotyrosine compared with control cells that were not contacted with a test compound.
This assay analyzes the tyrosine kinase activity of GST-Flk1 on poly(glu,tyr) peptides.
• 1. Corning 96-well ELISA plates (Corning Catalog No. 5805-96). • 2. poly(glu,tyr) 4:1, lyophilizate (Sigma Catalog #P0275). • 3. Preparation of poly(glu,tyr)(pEY) coated assay plates: Coat 2 ug/well of poly(glu,tyr)(pEY) in 100 μL PBS, hold at room temperature for 2 hours or at 4° C. overnight. Cover plates well to prevent evaporation. • 4. PBS Buffer: for 1 L, mix 0.2 g KH2PO4, 1.15 g Na2HPO4, 0.2 g KCl and 8 g NaCl in approx. 900 ml dH2O. When all reagents have dissolved, adjust the pH to 7.2 with HCl. Bring total volume to 1 L with dH2O. • 5. PBST Buffer: to 1 L of PBS Buffer, add 1.0 ml Tween-20. • 6. TBB—Blocking Buffer: for 1 L, mix 1.21 g TRIS, 8.77 g NaCl, 1 ml TWEEN-20 in approximately 900 ml dH2O. Adjust pH to 7.2 with HCl. Add 10 g BSA, stir to dissolve. Bring total volume to 1 L with dH2O. Filter to remove particulate matter. • 7. 1% BSA in PBS: To make a 1× working solution, add 10 g BSA to approx. 990 ml PBS buffer, stir to dissolve. Adjust total volume to 1 L with PBS buffer, filter to remove particulate matter. • 8. 50 mM Hepes pH 7.5. • 9. GST-Flk1cd purified from sf9 recombinant baculovirus transformation (SUGEN, Inc.). • 10. 4% DMSO in dH2O. • 11. 10 mMATP in dH2O. • 12. 40 mM MnCl2 • 13. Kinase Dilution Buffer (KDB): mix 10 ml Hepes (pH 7.5), 1 ml 5M NaCl, 40 μL 100 mM sodium orthovanadate and 0.4 ml of 5% BSA in dH2O with 88.56 ml dH2O. • 14. NUNC 96-well V bottom polypropylene plates, Applied Scientific Catalog #AS-72092 • 15. EDTA: mix 14.12 g ethylenediaminetetraacetic acid (EDTA) to approx. 70 ml dH2O. Add 10 N NaOH until EDTA dissolves. Adjust pH to 8.0. Adjust total volume to 100 ml with dH2O. • 16. 1^0 Antibody Dilution Buffer: mix 10 ml of 5% BSA in PBS buffer with 89.5 ml TBST. • 17. Anti-phosphotyrosine monoclonal antibody conjugated to horseradish peroxidase (PY99 HRP, Santa Cruz Biotech). • 18. 2,2′-Azinobis(3-ethylbenzthiazoline-6-sulfonic acid (ABTS, Moss, Cat. No. ABST). • 19. 10% SDS. Procedure: • 1. Coat Corning 96-well ELISA plates with 2 μg of polyEY peptide in sterile PBS as described in step 3 of Materials and Reagents. • 2. Remove unbound liquid from wells by inverting plate. Wash once with TBST. Pat the plate on a paper towel to remove excess liquid. • 3. Add 100 μl of 1% BSA in PBS to each well. Incubate, with shaking, for 1 hr. at room temperature. • 4. Repeat step 2. • 5. Soak wells with 50 mM HEPES (pH7.5) (150 μl/well). • 6. Dilute test compound with dH2O/4% DMSO to 4 times the desired final assay concentration in 96-well polypropylene plates. • 7. Add 25 μl diluted test compound to ELISA plate. In control wells, place 25 μl of dH2O/4% DMSO. • 8. Add 25 μl of 40 mM MnCl2 with 4×ATP (2 μM) to each well. • 9. Add 25 μl 0.5M EDTA to negative control wells. • 10. Dilute GST-Flk1 to 0.005 μg (5 ng)/well with KDB. • 11. Add 50 μl of diluted enzyme to each well. • 12. Incubate, with shaking, for 15 minutes at room temperature. • 13. […]

PDGFR = molecular target: T2, PDGFR (Homo sapiens, UniProt P09619); test: PDGFR bioassay (ELISA, in vitro kinase activity); assay type: biochemical; conditions: PDGFR-β expressing NIH 3T3 cell lysate; read-out: IC50 (μM) PDGF-R
T2 construct: SUGEN, Inc; host or cells: NIH 3T3 cell lysate; receptor captured on plate with monoclonal anti-PDGFR antibody 28D4C10
T2 sequence (P09619 33-1106, species assumed): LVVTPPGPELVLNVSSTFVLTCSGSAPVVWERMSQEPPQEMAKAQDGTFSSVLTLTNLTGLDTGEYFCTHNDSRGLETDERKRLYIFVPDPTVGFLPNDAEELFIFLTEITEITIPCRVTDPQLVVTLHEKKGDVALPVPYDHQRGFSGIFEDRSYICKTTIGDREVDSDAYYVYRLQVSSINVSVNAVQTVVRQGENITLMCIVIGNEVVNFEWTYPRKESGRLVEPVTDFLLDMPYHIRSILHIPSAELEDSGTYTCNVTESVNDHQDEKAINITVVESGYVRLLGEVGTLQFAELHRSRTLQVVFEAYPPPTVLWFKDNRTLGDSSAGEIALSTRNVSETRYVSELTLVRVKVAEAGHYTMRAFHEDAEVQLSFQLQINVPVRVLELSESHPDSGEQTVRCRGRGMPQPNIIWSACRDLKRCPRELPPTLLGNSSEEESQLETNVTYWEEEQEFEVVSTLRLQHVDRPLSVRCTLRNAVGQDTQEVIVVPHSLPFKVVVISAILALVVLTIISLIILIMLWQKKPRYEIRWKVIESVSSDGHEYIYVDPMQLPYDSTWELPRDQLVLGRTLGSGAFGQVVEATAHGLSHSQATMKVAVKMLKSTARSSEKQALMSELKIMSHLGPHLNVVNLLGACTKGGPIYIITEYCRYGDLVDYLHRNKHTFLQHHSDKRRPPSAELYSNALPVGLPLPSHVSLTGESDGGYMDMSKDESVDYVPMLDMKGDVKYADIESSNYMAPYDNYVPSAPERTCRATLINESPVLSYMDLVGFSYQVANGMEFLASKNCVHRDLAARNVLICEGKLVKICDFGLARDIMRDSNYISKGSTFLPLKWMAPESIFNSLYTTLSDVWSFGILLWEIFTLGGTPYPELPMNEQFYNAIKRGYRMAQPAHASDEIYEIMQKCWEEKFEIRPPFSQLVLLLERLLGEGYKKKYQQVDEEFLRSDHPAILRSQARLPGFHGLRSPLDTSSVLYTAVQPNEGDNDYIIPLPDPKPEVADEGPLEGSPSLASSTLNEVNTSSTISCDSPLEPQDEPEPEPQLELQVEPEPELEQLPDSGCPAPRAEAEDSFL

T1 sequence (P35918 784-1345 limits assumed): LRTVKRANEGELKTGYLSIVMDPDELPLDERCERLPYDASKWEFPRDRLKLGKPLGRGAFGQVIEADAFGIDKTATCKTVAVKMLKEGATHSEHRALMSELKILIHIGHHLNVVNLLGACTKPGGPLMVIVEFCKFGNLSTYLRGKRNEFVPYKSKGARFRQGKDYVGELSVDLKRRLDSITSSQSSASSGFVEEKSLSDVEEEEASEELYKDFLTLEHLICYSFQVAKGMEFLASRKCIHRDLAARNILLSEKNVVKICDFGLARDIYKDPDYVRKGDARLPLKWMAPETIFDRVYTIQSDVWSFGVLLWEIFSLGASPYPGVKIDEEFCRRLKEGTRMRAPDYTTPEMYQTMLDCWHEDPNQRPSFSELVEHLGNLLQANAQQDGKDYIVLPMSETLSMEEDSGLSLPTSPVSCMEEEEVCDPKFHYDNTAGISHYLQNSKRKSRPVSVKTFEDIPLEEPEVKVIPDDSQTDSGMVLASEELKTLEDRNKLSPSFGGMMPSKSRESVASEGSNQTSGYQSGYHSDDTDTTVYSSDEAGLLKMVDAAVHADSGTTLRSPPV

SMILES | IC50 (GST-Flk1) [µM] | IC50 (PDGFR) [µM]
Nc1ccc(C(=O)Nc2ccc(Nc3ncc(-c4cccs4)cn3)cc2)cc1 [Example 16, 4-amino-N-{4-[(5-thien-2-ylpyrimidin-2-yl)amino]phenyl}benzamide] | > 20 | 0.99
Nc1cccc(Nc2ncc(-c3csc4ccccc34)cn2)c1 [Example 20, N-[5-(1-benzothien-3-yl)pyrimidin-2-yl]benzene-1,3-diamine] | > 20 | > 20
O=C(CN1CCOCC1)Nc1cccc(Nc2cnc(-c3ccsc3)cn2)c1 [Example 42, 2-morpholin-4-yl-N-{3-[(5-thien-3-ylpyrazin-2-yl)amino]phenyl}acetamide] | > 20 | > 20
CC(C)Nc1cccc(Nc2ncc(-c3ccsc3)cn2)c1 [Example 37, N-isopropyl-N′-(5-thien-3-ylpyrimidin-2-yl)benzene-1,3-diamine] | 3.7 | 0.56
O=C(Nc1cccc(Nc2ncc(-c3ccsc3)cn2)c1)N1CCCC1CN1CCCC1 (stereo not shown) [Example 48] | 3.5 | 0.21
O=C(Nc1ccc(F)cc1)Nc1ncc(-c2ccsc2)cn1 [Example 10, N-(4-fluorophenyl)-N′-(5-thien-3-ylpyrimidin-2-yl)urea] | > 20 | > 20
O=C(CNCCN1CCOCC1)Nc1ccc(Nc2ncc(-c3ccsc3)cn2)cc1 [Example 25, 2-(2-morpholinoethylamino)-N-(4-(5-(thiophen-3-yl)pyrimidin-2-ylamino)phenyl)acetamide] | 5.4 | 0.47
O=C(CN1CCOCC1)Nc1ccc(Nc2ncc(-c3ccsc3)cn2)cc1 [Example 26, 2-morpholin-4-yl-N-{4-[(5-thien-3-ylpyrimidin-2-yl)amino]phenyl}acetamide] | 5.6 | 1.1
CN1CCN(CC(=O)Nc2ccc(Nc3ncc(-c4ccsc4)cn3)cc2)CC1 [Example 23, 2-(4-methylpiperazin-1-yl)-N-{4-[(5-thien-3-ylpyrimidin-2-yl)amino]phenyl}acetamide] | 5.1 | 0.55
Nc1ccc(Nc2ncc(-c3ccsc3)cn2)cc1 [Example 8, N-(5-thien-3-ylpyrimidin-2-yl)benzene-1,4-diamine] | 4.14 | 0.55
O=C(Nc1ccccc1)c1cccc(Nc2ncc(-c3cccs3)cn2)c1 [Example 18, N-phenyl-3-[(5-thien-2-ylpyrimidin-2-yl)amino]benzamide] | > 20 | > 20
O=C(NCCN1CCOCC1)Nc1ccc(Nc2ncc(-c3ccsc3)cn2)cc1 [Example 31, N-(2-morpholin-4-ylethyl)-N′-{4-[(5-thien-3-ylpyrimidin-2-yl)amino]phenyl}urea] | 5.2 | 0.78
O=C(CN1CCCC1)Nc1cccc(Nc2ncc(-c3ccsc3)cn2)c1 [Example 62, 2-pyrrolidin-1-yl-N-[3-(5-thiophen-3-yl-pyrimidin-2-ylamino)-phenyl]-acetamide] | 2.8 | 0.2
Nc1cccc(Nc2ncc(-c3ccsc3)cn2)c1 [Example 6, N-(5-thien-3-ylpyrimidin-2-yl)benzene-1,3-diamine] | 1.53 | 0.06
CCN(CC)CCNC(=O)Nc1ccc(Nc2ncc(-c3ccsc3)cn2)cc1 [Example 32, N-[2-(diethylamino)ethyl]-N′-{4-[(5-thien-3-ylpyrimidin-2-yl)amino]phenyl}urea] | 5.7 | 0.53
c1cc(Nc2ncc(-c3ccsc3)cn2)cc(N2CCOCC2)c1 [Example 39, N-(3-morpholin-4-ylphenyl)-5-thien-3-ylpyrimidin-2-amine] | 2 | 0.15
CCN(CC)CCNCC(=O)Nc1cccc(Nc2ncc(-c3ccsc3)cn2)c1 [Example 57, 2-(2-diethylamino-ethylamino)-N-[3-(5-thiophen-3-yl-pyrimidin-2-ylamino)-phenyl]-acetamide] | 3.1 | 0.23
Cc1ccc(Nc2ncc(-c3ccsc3)cn2)cc1NC(=O)c1ccc(CN2CCN(C)CC2)cc1 [Example 40, 4-(4-methyl-piperazin-1-ylmethyl)-N-[2-methyl-5-(5-thiophen-3-yl-pyrimidin-2-ylamino)-phenyl]-benzamide] | 10 | 2.6
O=C(CNCCN1CCOCC1)Nc1cccc(Nc2ncc(-c3ccsc3)cn2)c1 [Example 56, 2-(2-morpholin-4-yl-ethylamino)-N-[3-(5-thiophen-3-yl-pyrimidin-2-ylamino)-phenyl]-acetamide] | 2.4 | 0.09
O=C(Nc1ccc(Nc2ncc(-c3ccsc3)cn2)cc1)N1CCCC1CN1CCCC1 (stereo not shown) [Example 33, 2-(pyrrolidin-1-ylmethyl)-N-{4-[(5-thien-3-ylpyrimidin-2-yl)amino]phenyl}pyrrolidine-1-carboxamide] | 4.55 | 0.66
O=C(NCCN1CCS(=O)(=O)CC1)Nc1cccc(Nc2ncc(-c3ccsc3)cn2)c1 [Example 52, 1-[2-(1,1-dioxo-1λ^6-thiomorpholin-4-yl)ethyl]-3-[3-(5-thiophen-3-yl-pyrimidin-2-ylamino)-phenyl]-urea] | 1.6 | 0.36
O=C(CN1CCC(O)CC1)Nc1ccc(Nc2ncc(-c3ccsc3)cn2)cc1 [Example 28, 2-(4-hydroxypiperidin-1-yl)-N-{4-[(5-thien-3-ylpyrimidin-2-yl)amino]phenyl}acetamide] | 4.9 | 0.57
CC(=O)Nc1cccc(Nc2ncc(-c3cccs3)cn2)c1 [Example 14, N-{3-[(5-thien-2-ylpyrimidin-2-yl)amino]phenyl}acetamide] | 4.17 | 0.94
O=C(NCC(O)CN1CCOCC1)Nc1cccc(Nc2ncc(-c3ccsc3)cn2)c1 (stereo not shown) [Example 51, 1-(2-hydroxy-3-morpholin-4-yl-propyl)-3-[3-(5-thiophen-3-yl-pyrimidin-2-ylamino)-phenyl]-urea] | 2 | 0.12
Oc1ccc(Nc2ncc(-c3cccs3)cn2)cc1 [Example 15, 4-(5-thiophen-2-yl-pyrimidin-2-ylamino)-phenol] | 4.61 | 1.7
O=C(Nc1ccc(Nc2ncc(-c3ccsc3)cn2)cc1)N1CCC(N2CCCC2)CC1 [Example 30, 4-pyrrolidin-1-yl-N-{4-[(5-thien-3-ylpyrimidin-2-yl)amino]phenyl}piperidine-1-carboxamide] | 6.2 | 0.5
